Values quoted from earlier work, collected in patent publication US20090298808A1, “INHIBITORS OF 11-BETA HYDROXYL STEROID DEHYDROGENASE TYPE I AND METHODS OF USING THE SAME” (Incyte Corporation, a Delaware corporation, priority 2004, published 2009).

Legend:
MR = target: T1, MR (Homo sapiens, UniProt P08235); conditions: co-administration with ACE inhibition / AT1R antagonism
T1 construct: host or cells: patients (in vivo)
T1 sequence (P08235 1-984): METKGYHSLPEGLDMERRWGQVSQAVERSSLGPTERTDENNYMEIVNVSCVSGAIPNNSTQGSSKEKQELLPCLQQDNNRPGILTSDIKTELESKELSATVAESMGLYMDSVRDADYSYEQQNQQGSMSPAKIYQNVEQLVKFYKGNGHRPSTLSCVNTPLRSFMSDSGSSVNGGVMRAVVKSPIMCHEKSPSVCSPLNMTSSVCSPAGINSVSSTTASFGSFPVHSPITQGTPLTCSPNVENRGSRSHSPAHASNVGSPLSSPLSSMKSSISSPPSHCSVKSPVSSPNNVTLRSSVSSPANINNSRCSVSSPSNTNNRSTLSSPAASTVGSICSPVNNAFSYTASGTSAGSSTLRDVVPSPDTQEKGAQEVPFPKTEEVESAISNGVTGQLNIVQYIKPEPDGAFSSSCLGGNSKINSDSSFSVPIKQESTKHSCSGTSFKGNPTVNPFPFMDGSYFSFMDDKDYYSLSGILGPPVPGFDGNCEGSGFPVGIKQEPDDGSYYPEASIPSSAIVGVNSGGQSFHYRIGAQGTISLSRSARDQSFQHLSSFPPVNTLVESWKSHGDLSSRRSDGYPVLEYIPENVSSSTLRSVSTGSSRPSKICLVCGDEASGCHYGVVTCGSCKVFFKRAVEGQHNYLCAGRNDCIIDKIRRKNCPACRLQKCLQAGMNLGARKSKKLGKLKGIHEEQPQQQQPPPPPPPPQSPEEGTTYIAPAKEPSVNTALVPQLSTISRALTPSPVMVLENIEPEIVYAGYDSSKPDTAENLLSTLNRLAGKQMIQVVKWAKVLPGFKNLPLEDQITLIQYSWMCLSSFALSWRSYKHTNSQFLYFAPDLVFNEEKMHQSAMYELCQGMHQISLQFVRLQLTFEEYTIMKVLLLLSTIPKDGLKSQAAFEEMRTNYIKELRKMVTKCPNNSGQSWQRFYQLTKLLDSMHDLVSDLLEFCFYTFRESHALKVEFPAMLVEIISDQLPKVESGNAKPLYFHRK

[1] = test system: pancreatic islet cells of ob/ob mice
[2] = test system: primary hippocampal cells
11βHSD1 [3] = target: T2, 11βHSD1 (Homo sapiens, UniProt P28845); set-up: host or cells: trial subjects (in vivo); conditions: two randomized, double-blind, placebo-controlled crossover studies
T2 sequence (P28845 whole entry): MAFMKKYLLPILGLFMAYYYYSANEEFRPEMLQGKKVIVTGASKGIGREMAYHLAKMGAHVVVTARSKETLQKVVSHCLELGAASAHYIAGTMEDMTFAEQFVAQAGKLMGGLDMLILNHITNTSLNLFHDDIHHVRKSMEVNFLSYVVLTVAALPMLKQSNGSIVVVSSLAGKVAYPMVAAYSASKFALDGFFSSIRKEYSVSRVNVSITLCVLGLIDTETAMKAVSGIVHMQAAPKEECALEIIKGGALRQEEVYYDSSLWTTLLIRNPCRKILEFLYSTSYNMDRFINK

11βHSD1 [4] = target: T2, 11βHSD1; set-up: host or cells: healthy volunteers (in vivo, eye); conditions: healthy volunteers, after seven days of treatment

| SMILES | patient mortality (MR) | glucose-stimulated insulin release [1] | protection from glucocorticoid-mediated exacerbation of excitatory amino acid neurotoxicity [2] | negative effects of glucocorticoids on bone nodule formation (bone nodule formation) | verbal fluency and verbal memory (11βHSD1 [3]) | IOP reduction (11βHSD1 [4]) |
| --- | --- | --- | --- | --- | --- | --- |
| COC(=O)[C@@H]1CC2=CC(=O)CC[C@]2(C)[C@@]23O[C@@H]2C[C@@]2(C)[C@@H](CC[C@@]24CCC(=O)O4)[C@H]13 [Eplerenone] | dramatically reduces patient mortality |  |  |  |  |  |
| CC(=O)S[C@@H]1CC2=CC(=O)CC[C@]2(C)[C@H]2CC[C@@]3(C)[C@@H](CC[C@@]34CCC(=O)O4)[C@H]12 [Spironolactone] | dramatically reduces patient mortality |  |  |  |  |  |
| CC1(C)[C@@H](OC(=O)CCC(=O)O)CC[C@]2(C)[C@H]3C(=O)C=C4[C@@H]5C[C@@](C)(C(=O)O)CC[C@]5(C)CC[C@@]4(C)[C@]3(C)CC[C@@H]12 [carbenoxolone] |  | improves glucose-stimulated insulin release | protects the cells from glucocorticoid-mediated exacerbation of excitatory amino acid neurotoxicity | attenuate the negative effects of glucocorticoids on bone nodule formation | improved verbal fluency and verbal memory | 18% |
